Reference: PubChem BioAssay AID248 (DTP/NCI, 2004)
Toxic doses and inconclusive results are not listed. Cut-off read from the data, not from the text of the source: active = T/C of 150% or more; inactive = T/C below 125%. Square brackets hold non-standard residues; d marks the D form. Peptide text beside a SMILES is read from it. * marks the point of attachment. ξ: configuration not given here. Boc = CC(C)(C)OC(=O)*; ξP = O=C(O)C1CCCN1

System: L1210 leukemia ip in BDF1 mice, survival T/C
Test: NCI In Vivo Anticancer Drug Screen. Data for tumor model L1210 Leukemia (intraperitoneal) in B6D2F1 (BDF1) mice
Details: endpoint: mean survival time, higher = longer survival
Procedure, shortened: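 Survival endpoint. Drug-treated group vs vehicle group, expressed as T divided by C. Tumor passaged by transplantation.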

[1] = dose: 200.0 mg/kg/injection, schedule: Q04DX003 (ip), vehicle: saline with Tween-80
[2] = dose: 100.0 mg/kg/injection, schedule: Q01DX009 (ip), vehicle: Klucel (hydroxypropylcellulose) (HPC)
[3] = dose: 200.0 mg/kg/injection, schedule: Q01DX009 (ip), vehicle: Klucel (hydroxypropylcellulose) (HPC)
[4] = dose: 100.0 mg/kg/injection, schedule: Q01DX001 (ip), vehicle: carboxymethylcellulose (CMC)
[5] = dose: 200.0 mg/kg/injection, schedule: Q01DX001 (ip), vehicle: carboxymethylcellulose (CMC)
[6] = dose: 400.0 mg/kg/injection, schedule: Q01DX001 (ip), vehicle: carboxymethylcellulose (CMC)
[7] = dose: 100.0 mg/kg/injection, schedule: Q04DX003 (ip), vehicle: saline with Tween-80
[8] = dose: 100.0 mg/kg/injection, schedule: Q01DX001 (ip), vehicle: saline
[9] = dose: 200.0 mg/kg/injection, schedule: Q01DX001 (ip), vehicle: saline
[10] = dose: 400.0 mg/kg/injection, schedule: Q01DX001 (ip), vehicle: saline
[11] = dose: 400.0 mg/kg/injection, schedule: Q04DX003 (ip), vehicle: saline with Tween-80
[12] = dose: 100.0 mg/kg/injection, schedule: Q04DX002 (ip), vehicle: Klucel (hydroxypropylcellulose) (HPC)
[13] = dose: 200.0 mg/kg/injection, schedule: Q04DX002 (ip), vehicle: Klucel (hydroxypropylcellulose) (HPC)
[14] = dose: 400.0 mg/kg/injection, schedule: Q04DX002 (ip), vehicle: Klucel (hydroxypropylcellulose) (HPC)
[15] = dose: 100.0 mg/kg/injection, schedule: Q01DX009 (ip), vehicle: saline with Tween-80
[16] = dose: 200.0 mg/kg/injection, schedule: Q01DX009 (ip), vehicle: saline with Tween-80
[17] = dose: 400.0 mg/kg/injection, schedule: Q01DX009 (ip), vehicle: saline with Tween-80
[18] = dose: 400.0 mg/kg/injection, schedule: Q04DX003 (ip), vehicle: saline

Measured: T/C

Cc1ccc(NC(=O)c2cccc(C(=O)Nc3ccc(C)cc3C)c2)c(C)c1
inactive: dose: 12.5 mg/kg/injection, schedule: Q04DX003 (ip), vehicle: saline with Tween-80 98 % of control | dose: 25.0 mg/kg/injection, schedule: Q04DX003 (ip), vehicle: saline with Tween-80 98 % of control | dose: 50.0 mg/kg/injection, schedule: Q04DX003 (ip), vehicle: saline with Tween-80 93 % of control | [1] 87 % of control

CSC(=N)c1cccc(OCCOc2ccccc2)c1
inactive: dose: 50.0 mg/kg/injection, schedule: Q01DX009 (ip), vehicle: Klucel (hydroxypropylcellulose) (HPC) 96 % of control | [2] 102 % of control | [3] 96 % of control

O=[N+]([O-])c1ccn(Cc2ccccc2)c1
inactive: [4] 97 % of control | [5] 88 % of control | [6] 92 % of control

S=C(Nc1cccc(Cl)c1)Nc1cccc(Cl)c1
inactive: [7] 94 % of control | [1] 97 % of control

CCCCCCCCC[As](=O)(O)CCCCCCCCC
inactive: dose: 50.0 mg/kg/injection, schedule: Q01DX001 (ip), vehicle: saline 101 % of control | [8] 98 % of control | [9] 98 % of control | [10] 101 % of control

c1ccc2c(c1)cc1ccc3cccc4ncc2c1c34
inactive: [7] 86 % of control | [1] 96 % of control | [11] 88 % of control

CCCCNC(=O)NC(C)c1ccccc1 (configuration not stated)
inactive: [12] 112 % of control | [13] 112 % of control | [14] 105 % of control

CCOC(=O)c1ccc(NC(=O)Oc2ccc(Cl)cc2C)cc1
inactive: [2] 101 % of control | [3] 92 % of control | dose: 400.0 mg/kg/injection, schedule: Q01DX009 (ip), vehicle: Klucel (hydroxypropylcellulose) (HPC) 95 % of control

CC12CCCC(O)(CC(=O)C1)C2 (configuration not stated)
inactive: dose: 100.0 mg/kg/injection, schedule: Q01DX009 (ip), vehicle: saline 93 % of control | dose: 100.0 mg/kg/injection, schedule: Q04DX003 (ip), vehicle: acetone 95 % of control | dose: 200.0 mg/kg/injection, schedule: Q01DX009 (ip), vehicle: saline 95 % of control | dose: 200.0 mg/kg/injection, schedule: Q04DX003 (ip), vehicle: acetone 101 % of control | dose: 400.0 mg/kg/injection, schedule: Q01DX009 (ip), vehicle: saline 91 % of control | dose: 400.0 mg/kg/injection, schedule: Q04DX003 (ip), vehicle: acetone 98 % of control

OC1OC(COCc2ccccc2)C(OCc2ccccc2)C1OCc1ccccc1 (configuration not stated)
inactive: dose: 100.0 mg/kg/injection, schedule: Q01DX001 (ip), vehicle: saline with Tween-80 95 % of control | dose: 200.0 mg/kg/injection, schedule: Q01DX001 (ip), vehicle: saline with Tween-80 95 % of control

CCN(CCCl)CC1C(c2ccccc2)C1c1ccccc1 (configuration not stated)
inactive: dose: 25.0 mg/kg/injection, schedule: Q04DX002 (ip), vehicle: Klucel (hydroxypropylcellulose) (HPC) 94 % of control | dose: 50.0 mg/kg/injection, schedule: Q04DX002 (ip), vehicle: Klucel (hydroxypropylcellulose) (HPC) 87 % of control

CCOC(=O)NCC(CCN1CCCCC1)(c1cccc2ccccc12)C(C)C (configuration not stated)
inactive: dose: 100.0 mg/kg/injection, schedule: Q04DX003 (ip), vehicle: Klucel (hydroxypropylcellulose) (HPC) 100 % of control | dose: 200.0 mg/kg/injection, schedule: Q04DX003 (ip), vehicle: Klucel (hydroxypropylcellulose) (HPC) 88 % of control

CCCCOC(=O)c1ccc(NC(=O)NCCC)cc1
inactive: [15] 90 % of control | [16] 88 % of control | [17] 95 % of control

O=C(C[n+]1c(Cl)ccc2ccccc21)c1ccccc1
inactive: dose: 75.0 mg/kg/injection, schedule: Q01DX001 (ip), vehicle: other 94 % of control | dose: 150.0 mg/kg/injection, schedule: Q01DX001 (ip), vehicle: other 100 % of control

OC(c1ccc(Br)cc1)(c1cccs1)C1CC1 (configuration not stated)
inactive: [15] 98 % of control | [7] 103 % of control | [16] 98 % of control | [1] 100 % of control | [17] 98 % of control | [11] 97 % of control

CCN(CC)CCCOC(=O)C(CCC(C)C)c1ccccc1C (configuration not stated)
inactive: dose: 12.5 mg/kg/injection, schedule: Q01DX009 (ip), vehicle: saline 93 % of control | dose: 12.5 mg/kg/injection, schedule: Q04DX003 (ip), vehicle: saline 102 % of control | dose: 25.0 mg/kg/injection, schedule: Q01DX009 (ip), vehicle: saline 102 % of control | dose: 25.0 mg/kg/injection, schedule: Q04DX003 (ip), vehicle: saline 100 % of control | dose: 50.0 mg/kg/injection, schedule: Q01DX009 (ip), vehicle: saline 93 % of control | dose: 50.0 mg/kg/injection, schedule: Q04DX003 (ip), vehicle: saline 94 % of control

CC(=O)OC1CC(C)(C)CC(OC(C)=O)C1(C)C (configuration not stated)
inactive: dose: 75.0 mg/kg/injection, schedule: Q01DX001 (ip), vehicle: saline 100 % of control | dose: 150.0 mg/kg/injection, schedule: Q01DX001 (ip), vehicle: saline 111 % of control

Cc1csc(C)[n+]1[O-]
inactive: dose: 100.0 mg/kg/injection, schedule: Q04DX003 (ip), vehicle: saline 102 % of control | dose: 200.0 mg/kg/injection, schedule: Q04DX003 (ip), vehicle: saline 101 % of control | [18] 98 % of control

Oc1ccc(C2=NNC(c3ccc(O)cc3)=NN2)cc1
inactive: [12] 105 % of control | [13] 97 % of control | [14] 94 % of control

Cc1coc(NS(=O)(=O)c2ccc(N=Nc3c(N)n(C)c(=O)n(C)c3=O)cc2)c1C
inactive: [4] 98 % of control | [5] 95 % of control | [6] 98 % of control

O=C(Nc1ccccc1-c1ccc([N+](=O)[O-])cc1)c1ccc(-c2ccccc2)cc1
inactive: [18] 92 % of control

COC(=O)C1CCCN1C(=O)CNC(=O)OC(C)(C)C (stereo not drawn) (Boc-Gly-[ξP]-OMe)
inactive: [8] 103 % of control | [9] 97 % of control | [10] 94 % of control

O=C(/C=C/c1ccccc1)c1ccc(Cl)c(Cl)c1
inactive: dose: 50.0 mg/kg/injection, schedule: Q01DX009 (ip), vehicle: saline with Tween-80 101 % of control | [15] 101 % of control | [16] 97 % of control
